Converted amounts (≈) assume the structure as drawn.
Legend:
[1] = Inhibition of fibronectin binding to VAL4 expressed in Jurkat cells by adhesion test; assay type: cell-based, Homo sapiens
[2] = Oral bioavailability in monkey; assay type: ADME, organism-based, Macaca mulatta; conditions: rhesus monkey, in vivo
[3] = Oral bioavailability in dog; assay type: ADME, organism-based, Canis lupus familiaris; conditions: in vivo
[4] = target: Integrin alpha-4/beta-1 (VLA-4) (Homo sapiens); test: Inhibition of VCAM binding to integrin alpha4beta1 by human whole blood assay
[5] = Inhibition of human recombinant VACM1 binding to VAL4 expressed in U937 cells by adhesion test; assay type: cell-based; conditions: u-937
[6] = Distribution coefficient, log D of the compound; assay type: physicochemical; conditions: octanol/water
[7] = Oral bioavailability in rat; assay type: ADME, organism-based; conditions: in vivo
[8] = Oral bioavailability in mouse; assay type: ADME, organism-based; conditions: in vivo
[9] = Inhibition of T cell activation assessed as CD3-VACM interaction; assay type: functional, cell-based, Homo sapiens
[10] = Solubility at pH 7.4; assay type: physicochemical; conditions: buffer
[11] = system: U-937; test: Inhibition of human recombinant VACM1 binding to VAL4 expressed in U937 cells at 1 uM by adhesion test; assay type: cell-based

Row | Compound | IC50 [5] [nM] | also measured
1 | O=C(N[C@@H](Cc1ccc2nc(-c3c(Cl)cccc3Cl)ccc2c1)C(=O)O)c1c(Cl)cccc1Cl | 3.9 | IC50 [1]: 1.6 nM; bioavailability [2]: 23%; bioavailability [3]: 59%; IC50 [4]: 95 nM; logD [6]: 1.47; bioavailability [7]: 41%; bioavailability [8]: 35%; IC50 [9]: 43 nM; solubility [10]: 1.5 µg/mL (≈ 2.81 µM)
2 | O=C(N[C@H](Cc1ccc2nc(-c3c(Cl)cccc3Cl)ccc2c1)C(=O)O)c1c(Cl)cccc1Cl | > 3200 | 
3 | O=C(NC(Cc1ccc2nc(-c3cc(C(F)(F)F)ccc3Cl)ccc2c1)C(=O)O)c1c(Cl)cccc1Cl (stereo not drawn) | 208 | 
4 | COc1cccc(OC)c1C(=O)NC(Cc1ccc2nc(-c3c(Cl)cccc3Cl)ccc2c1)C(=O)O (stereo not drawn) | 53.7 | 
5 | O=C(NC(Cc1ccc2nc(-c3ccccc3)ccc2c1)C(=O)O)c1c(Cl)cccc1Cl (stereo not drawn) |  | inhibition [11]: 24%
6 | COc1cccc(OC)c1-c1ccc2cc(CC(NC(=O)c3c(Cl)cccc3Cl)C(=O)O)ccc2n1 (stereo not drawn) | 20 | 
7 | O=C(NC(Cc1ccc2nc(-c3cc(Cl)nc(Cl)c3)ccc2c1)C(=O)O)c1c(Cl)cccc1Cl (stereo not drawn) | 8.6 | 
8 | Cc1cc(Cl)c(C(=O)NC(Cc2ccc3nc(-c4c(Cl)cccc4Cl)ccc3c2)C(=O)O)c(Cl)n1 (stereo not drawn) | 7.9 | 
9 | Cc1cccc(C)c1C(=O)NC(Cc1ccc2nc(-c3c(Cl)cccc3Cl)ccc2c1)C(=O)O (stereo not drawn) | 37.2 | 
10 | O=C(O)C(Cc1ccc2nc(-c3c(Cl)cccc3Cl)ccc2c1)NC(=O)[C@@H]1CCC(=O)N1Cc1ccccc1 (stereo partly drawn) | 15.3 | 
11 | O=C(O)C(Cc1ccc2nc(-c3c(Cl)cccc3Cl)ccc2c1)NC(=O)C1(c2ccc(Cl)cc2)CCCC1 (stereo not drawn) | 6.6 | 
12 | Cc1cccc(Cl)c1C(=O)NC(Cc1ccc2nc(-c3c(Cl)cccc3Cl)ccc2c1)C(=O)O (stereo not drawn) | 3.9 | 
13 | O=C(NC(Cc1ccc2nc(-c3c(Cl)cccc3Cl)ccc2c1)C(=O)O)c1c(Cl)cccc1Cl (stereo not drawn) | 7.8 | 
14 | O=C(NC(Cc1ccc2nc(-c3c(Cl)cccc3Cl)ccc2c1)C(=O)O)c1ccccc1 (stereo not drawn) | 5640 | 
15 | Cc1cccc(C)c1-c1ccc2cc(CC(NC(=O)c3c(Cl)cccc3Cl)C(=O)O)ccc2n1 (stereo not drawn) | 102 | 
16 | CS(=O)(=O)c1ccc(-c2ccc3cc(CC(NC(=O)c4c(Cl)cccc4Cl)C(=O)O)ccc3n2)cc1 (stereo not drawn) |  | inhibition [11]: 82%
17 | O=C(NC(Cc1ccc2nc(-c3c(F)cccc3F)ccc2c1)C(=O)O)c1c(Cl)cccc1Cl (stereo not drawn) | 372 | 
18 | COc1ccc2ccccc2c1-c1ccc2cc(CC(NC(=O)c3c(Cl)cccc3Cl)C(=O)O)ccc2n1 (stereo not drawn) | 7.3 | 
19 | O=C(NC(Cc1ccc2nc(-c3ccc(Cl)cc3Cl)ccc2c1)C(=O)O)c1c(Cl)cccc1Cl (stereo not drawn) | 748 | 
20 | COc1cccc(OC)c1-c1ccc(C[C@H](NC(=O)c2c(Cl)cccc2Cl)C(=O)O)cc1 | 18 | IC50 [9]: 99 nM
21 | CS(=O)(=O)c1ccc(C(=O)NC(Cc2ccc3nc(-c4c(Cl)cccc4Cl)ccc3c2)C(=O)O)c(Cl)c1 (stereo not drawn) | 3.5 | 
22 | O=C(NC(Cc1ccc2nc(-c3ccncc3)ccc2c1)C(=O)O)c1c(Cl)cccc1Cl (stereo not drawn) | 381 | 
23 | O=C(NC(Cc1ccc2nc(-c3ccccc3Br)ccc2c1)C(=O)O)c1c(Cl)cccc1Cl (stereo not drawn) | 154 | 
24 | O=C(NC(Cc1ccc2nc(-c3nccs3)ccc2c1)C(=O)O)c1c(Cl)cccc1Cl (stereo not drawn) |  | inhibition [11]: 38%
25 | O=C(NC(Cc1ccc2nc(-c3c(Cl)cccc3[N+](=O)[O-])ccc2c1)C(=O)O)c1c(Cl)cccc1Cl (stereo not drawn) | 6.5 | 
26 | O=C(NC(Cc1ccc2nc(-c3c(Cl)cccc3Cl)ccc2c1)C(=O)O)c1c(F)cccc1F (stereo not drawn) | 435 | 
27 | O=C(NC(Cc1ccc2nc(-c3c(F)cccc3Cl)ccc2c1)C(=O)O)c1c(Cl)cccc1Cl (stereo not drawn) | 20 | 
28 | O=C(NC(Cc1ccc2nc(-c3ccccc3C(F)(F)F)ccc2c1)C(=O)O)c1c(Cl)cccc1Cl (stereo not drawn) | 92 | 

Reference: ChEMBL document CHEMBL1146257, “2,6-Quinolinyl derivatives as potent VLA-4 antagonists” (Bioorg Med Chem Lett, 2007)
